The results in this text go back to patent US8759379B2, “Inhibitors of cytochrome P450” (Gilead Sciences, Inc., priority 2008, dated 2014).

In this experiment the target is T1, CYP450 3A4 (Homo sapiens, UniProt P08684).
T1 construct: Pooled (n≧15 donors) human hepatic microsomal fraction was obtained from BD-Gentest; tissue BD-Gentest (Woburn, Mass.); host or cells: pooled human liver microsomes (n≥15 donors)
T1 sequence (P08684 whole entry): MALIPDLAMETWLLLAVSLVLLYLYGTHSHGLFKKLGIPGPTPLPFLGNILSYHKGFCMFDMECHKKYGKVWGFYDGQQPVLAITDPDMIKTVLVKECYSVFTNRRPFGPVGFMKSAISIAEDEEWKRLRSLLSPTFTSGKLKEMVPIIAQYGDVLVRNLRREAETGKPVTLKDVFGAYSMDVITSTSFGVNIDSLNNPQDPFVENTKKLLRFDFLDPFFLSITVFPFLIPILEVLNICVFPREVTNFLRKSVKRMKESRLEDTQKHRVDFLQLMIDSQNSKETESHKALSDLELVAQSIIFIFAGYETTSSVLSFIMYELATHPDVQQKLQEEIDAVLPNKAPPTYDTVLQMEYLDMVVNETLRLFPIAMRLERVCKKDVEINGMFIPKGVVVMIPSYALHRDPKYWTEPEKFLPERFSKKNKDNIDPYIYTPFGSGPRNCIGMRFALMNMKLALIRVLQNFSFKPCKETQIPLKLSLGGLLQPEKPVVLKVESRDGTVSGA
Nature of the experiment: CYP3A inhibition assay (terfenadine oxidase, human hepatic microsomal fraction). The experiment is classed as biochemical. The settings on record: pooled human hepatic microsomes 0.25 mg/mL, terfenadine 3 μM. The procedure: Pooled (n≧15 donors) human hepatic microsomal fraction was obtained from BD-Gentest (Woburn, Mass.) who also supplied hydroxy-terfenadine, 4′-hydroxydiclofenac and NADPH regenerating system. Ritonavir was prepared from commercial Norvir® oral solution (Abbott Laboratories, Abbott Park, Ill.). Other reagents were from Sigma-Aldrich (St. Louis, Mo.) and included terfenadine, fexofenadine, BRL 15572, diclofenac and mefenamic acid.
Incubations were performed in duplicate in 50 mM potassium phosphate buffer, pH 7.4 with NADPH regenerating system used as described by the manufacturer. […] The final substrate concentrations used were equal to the apparent Km values for the activities determined under the same conditions. Inhibitors were dissolved in DMSO, and the final concentration of DMSO, from both substrate and inhibitor vehicles, was 1% (v/v). Incubations were performed at 37° C. with shaking and were initiated by addition of substrate. Aliquots were then removed at 0, 7 and 15 minutes. Samples were quenched by treatment with an acetonitrile, formic acid, water (94.8%/0.2%/5%, v/v/v) mixture containing internal standard. Precipitated protein was removed by centrifugation at 3000 rpm for 10 min and aliquots of the supernatant were then subjected to LC-MS analysis.
The LC-MS system consisted of a Waters Acquity UPLC, with a binary solvent manager and a refrigerated (8° C.) sample organizer and sample manager, interfaced to a Micromass Quattro Premier tandem mass spectrometer operating in electrospray ionization mode. The column was a Waters Acquity UPLC BEH C18 2.1×50 mm, 1.7 μm […]. Mobile phases consisted of mixtures of acetonitrile, formic acid and water, the composition for mobile phase A being 1%/0.2%/98.8% (v/v/v) and that for mobile phase B being 94.8%/0.2%/5% (v/v/v). The injection volumes were 5 μL and the flow rate was 0.8 mL/min. Concentrations of metabolites were determined by reference to standard curves generated with authentic analytes under the same conditions as the incubations. […]
In turn, `CC(C)CN(CC[C@H](Cc1ccccc1)NC(=O)O[C@H]1CO[C@H]2OCC[C@H]21)S(=O)(=O)c1ccc(N)cc1` [Example 27] gave a 50% inhibitory concentration (IC50) of 0.201 to 0.5 µM.
`CC(C)CN(CC[C@H](Cc1ccccc1)NC(=O)O[C@H]1CCOC1)S(=O)(=O)c1ccc(N)cc1` [Example 28] yielded an IC50 of 0.501 to 1 µM.
In turn, `CC(C)c1nc(CN(C)C(=O)N[C@H](C(=O)N[C@H](CCN(Cc2ccccc2)C(=O)OCc2cncs2)Cc2ccccc2)C(C)C)cs1` [Example 103] yielded an IC50 of 0.1 to 0.2 µM.
